Earlier results as cited in US20070225217A1, “Methods, compositions, and kits for the treatment of medical conditions” (CombinatoRx, Incorporated, priority 2005, published 2007).

absorption after oral administration: absorbed rapidly and completely
Compound: CO[C@H]1C[C@@H]2CC[C@@H](C)[C@@](O)(O2)C(=O)C(=O)N2CCCC[C@H]2C(=O)O[C@H]([C@H](C)C[C@@H]2CC[C@@H](O)[C@H](OC)C2)CC(=O)[C@H](C)/C=C(\C)[C@@H](O)[C@@H](OC)C(=O)[C@H](C)C[C@H](C)/C=C/C=C/C=C/1C [Rapamycin]
